Source: patent publication US20240287124A1, “PRODRUGS OF 4'-SUBSTITUTED NUCLEOSIDE REVERSE TRANSCRIPTASE INHIBITORS” (Merck Sharp & Dohme LLC, priority 2023, published 2024)
pIC50: −log10 of the molar value. ≈ marks a conversion by molar mass, not a printed value.

Experiments:
[1] = Aqueous solubility in PBS, pH 7.4; type: physicochemical; conditions: phosphate buffered saline, pH 7.4, aqueous buffer, thermodynamic from solid, pH 7.4 phosphate buffered saline, 24 hours, amorphous or crystalline material; read-out: Aqu. Solubility
Outline: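 Excess solid suspended at 0.5 mg/mL in PBS pH 7.4 and stirred 24 hours. Filtrate (0.45 μm) diluted 1:1 with ACN:H2O and quantified by UPLC against a standard curve; residual solid phase checked by XRPD and PLM.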

[2] = Plasma stability in frozen human plasma; type: in vitro ADME; conditions: frozen human plasma at 37° C., 0-3 hr; read-out: T1/2 Human Plasma (converted)
Protocol: Plasma stability of the compounds was evaluated in frozen human plasma at 37° C. in a 10% CO2 environment. The stability of the analyte was assessed by determining the percentage of drug loss over the course of 0, 0.25, 0.5, 1, and 3 hr. In addition, the appearance of Compound A was determined for the same time course. Percent of drug loss as based on ratio with internal standard. Analyte concentrations were measured by LC/MS/MS. Linear regression was performed with log transformed percent of average TO values and linear time values. The elimination rate constant (ke) was calculated from the slope of this regression line and the half-life (T½) calculated based on the elimination rate constant.

[3] = test system: HIV-1 wild-type (R8) virus; assay: Viral KINetics in Green cells (VIKING) assay, HIV-1 replication in MT4-GFP reporter cells; type: cell-based; conditions: Human immunodeficiency virus 1, 10% normal human serum, MT4-GFP cells, HIV-1 wild-type (R8); read-out: Viking (10% NHS), IC50
Outline: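 Compounds in 3-fold, 10-point series (typical 4 μM-0.2 nM) in 10% normal human serum received MT4 GFP-reporter T cells pre-infected overnight with wild-type R8 virus (MOI ~0.01). Ratio of GFP-positive cells at 72 vs 48 h defined replication; IC50 from nonlinear 4-parameter dose-response fitting.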

Row | solubility at 24 h [1] [µg/mL] | half-life [2] [min] | SMILES | pIC50 [3]
1 | 55 (≈ 140 µM) | < 15 | C#C[C@]1(COC(=O)CCCC)O[C@@H](n2ccc3c(N)nc(Cl)nc32)C[C@@H]1O [Example 15, ((2R,3S,5R)-5-(4-amino-2-chloro-7H-pyrrolo[2,3-d]pyrimidin-7-yl)-2-ethynyl-3-hydroxytetrahydrofuran-2-yl)methyl pentanoate] | 8.64
2 | 136 (≈ 359 µM) | 2900 | C#C[C@]1(CO)O[C@@H](n2ccc3c(N)nc(Cl)nc32)C[C@@H]1OC(=O)C(C)C [Example 2, (2R,3S,5R)-5-(4-amino-2-chloro-7H-pyrrolo[2,3-d]pyrimidin-7-yl)-2-ethynyl-2-(hydroxymethyl)tetrahydrofuran-3-yl isobutyrate] | 7.39
3 | 285 (≈ 752 µM) | 2.52 | C#C[C@]1(COC(=O)C(C)C)O[C@@H](n2ccc3c(N)nc(Cl)nc32)C[C@@H]1O [Example 11, ((2R,3S,5R)-5-(4-amino-2-chloro-7H-pyrrolo[2,3-d]pyrimidin-7-yl)-2-ethynyl-3-hydroxytetrahydrofuran-2-yl)methyl isobutyrate] | 8.72
4 | < 1 | 132 | C#C[C@]1(COC(=O)C(CC)CC)O[C@@H](n2ccc3c(N)nc(Cl)nc32)C[C@@H]1OC(=O)C(CC)CC [Example 44, (2R,3S,5R)-5-(4-amino-2-chloro-7H-pyrrolo[2,3-d]pyrimidin-7-yl)-2-(((2-ethylbutanoyl)oxy)methyl)-2-ethynyltetrahydrofuran-3-yl 2-ethylbutanoate] | 6.45
5 | 2.9 (≈ 6.76 µM) | 24.6 | C#C[C@]1(CO)O[C@@H](n2ccc3c(N)nc(Cl)nc32)C[C@@H]1OC(=O)Oc1ccccc1 [Example 12, (2R,3S,5R)-5-(4-amino-2-chloro-7H-pyrrolo[2,3-d]pyrimidin-7-yl)-2-ethynyl-2-(hydroxymethyl)tetrahydrofuran-3-yl phenyl carbonate] | 8.54
6 | 182 (≈ 441 µM) | 1.56 | C#C[C@]1(COC(=O)c2ccccc2)O[C@@H](n2ccc3c(N)nc(Cl)nc32)C[C@@H]1O [Example 9, ((2R,3S,5R)-5-(4-amino-2-chloro-7H-pyrrolo[2,3-d]pyrimidin-7-yl)-2-ethynyl-3-hydroxytetrahydrofuran-2-yl)methyl benzoate] | 8.55
7 | 351 (≈ 889 µM) | 1.68 | C#C[C@]1(COC(=O)OC(C)C)O[C@@H](n2ccc3c(N)nc(Cl)nc32)C[C@@H]1O [Example 23, ((2R,3S,5R)-5-(4-amino-2-chloro-7H-pyrrolo[2,3-d]pyrimidin-7-yl)-2-ethynyl-3-hydroxytetrahydrofuran-2-yl)methyl isopropyl carbonate] | 8.66
